{"source": "patent US20090074878A1", "about": "“Non-Toxic Water Soluble Inorganice Antimicrobal Polymer and Related Methods” (priority 2005, published 2009)", "test_system": "E coli O157:H7", "experiment": "Effect of pH on Concrobium activity, lysis under light microscope (Example 5)", "format": "cell-based", "details": "one million CFU", "protocol": "One million CFU of E coli O157:H7 were incubated with the following and samples of each were observed under a light microscope:\n1. 1 mL of Concrobium, normal saline and 0.1 N (normal) sodium hydroxide 2. 1 mL of Concrobium and normal saline 3. 1 mL normal saline"}
{"smiles": "[Na+].[OH-]", "note": "[sodium hydroxide]", "values": [{"measurement": "lysing effect on E coli in suspension", "value": "lysed the E. coli in suspension"}]}
